Test results taken from patent US20240239792A1, “MODULATORS OF BCL-2 OR BCL-2/BCL-XL AND USES THEREOF” (APPICINE THERAPEUTICS (HK) LIMITED, priority 2021, published 2024).

Tests used:
BCL-2 = biological target: T1, BCL-2 (Homo sapiens, UniProt P10415); assay: HTRF BCL-2/BAK assay (Cisbio); format: binding; conditions: recombinant human Tag1-BCL-2 2 nM, Tag2-BAK 10 nM
T1 construct: purchased Cisbio 63ADK000CB01PEG
Experimental: (§1) Then the pre-mixed anti-Tag1-Eu^3+ and anti-tag2-XL665 were added to the plate and further incubated at room temperature for another 2 hours. The signals ([…]) were read on Envision 2104 instrument. The IC50 for each compound was derived from fitting the signal of 665/615 nM to the increasing compound concentration.
(§2) Using the above assays, the following compounds were tested.

BCL-XL = biological target: T2, BCL-XL (Homo sapiens, UniProt Q07817); assay: HTRF BCL-XL/BAK assay (Cisbio); format: binding; conditions: recombinant human Tag1-BCL-XL 2 nM, Tag2-BAK 5 nM
T2 construct: purchased Cisbio 63ADK000CB04PEG
T2 sequence (Q07817 whole entry): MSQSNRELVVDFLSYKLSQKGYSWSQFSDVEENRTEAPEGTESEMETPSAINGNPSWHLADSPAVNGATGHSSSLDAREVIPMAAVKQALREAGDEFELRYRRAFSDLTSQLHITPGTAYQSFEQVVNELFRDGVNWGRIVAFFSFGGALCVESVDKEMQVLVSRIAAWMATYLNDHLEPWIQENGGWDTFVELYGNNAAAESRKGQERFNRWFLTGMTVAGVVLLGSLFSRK
Experimental: as §1, §2

DOHH2 cells = assay: CellTiter-Glo cell proliferation assay, DOHH2 cells; format: cell-based; conditions: Homo sapiens, DOHH-2, 72 hours
In short: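 GI50 derived from CellTiter-Glo luminescent viability signal. Cells grown in DMEM with 10% FBS received a compound dilution series for 72 h (37 °C, 5% CO2).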

[1] = test system: RS4;11 subcutaneous xenograft tumor; assay: In vivo pharmacodynamic study, NOD/SCID RS4;11 subcutaneous xenograft tumor model; set-up: species or system NOD/SCID female mouse; conditions: q.d., after 20 days dosing
Experimental: In general, NOD/SCID RS4;11 subcutaneous xenograft tumor model was established by inoculating 5*10^6/0.1 ml/mouse subcutaneously in the right back of the NOD/SCID female mouse. The animals were checked daily for any effects of treatments on behaviors such as mobility, food and water consumption, body weight gain/loss, eyes, hairs and any other abnormalities. Mortality and clinical signs observed during the study were recorded in the raw data. Animal weight and tumor size were measured every two days during the study. Tumor volume (TV) was calculated as: TV=0.5*a*b^2, wherein a and b represent the measured length and width of tumor, respectively. Relative tumor proliferation inhibition rate (TGIRTV (%)), as an indication of anti-tumor effectiveness, was calculated as: TGIRTV (%)=(1−TRTV/CRTV)*100%, wherein TRTV and CRTV were relative tumor volume (RTV) in treatment group and vehicle control group, respectively. RTV was calculated as: RTV=Vt/V0, wherein Vt and V0 represented the tumor volume measured on day t after dosing and on the first day of dosing. At the end of last dosing, plasma and tumor tissue were collected, weighed, and photographed according to requirements of the study protocol.
The TGIRTV(%) values after 20 days dosing were shown in Table 5 below, where “+++” represented TGIRTV(%)≥[…]; “++” represented 30%<TGIRTV(%)<80%. p.o. stands for “per os”; I.P. stands for “intraperitoneal”; q.d. refers to “once daily”.

CYP2C9 = biological target: T3, CYP2C9 (Homo sapiens, UniProt P11712); assay: CYP2C9 activity assay in human liver microsomes, substrate diclofenac; format: in vitro ADME; conditions: probe diclofenac, test compound 1 μM, 37° C. 10 min, read-out: Inhibition rate (%) against CYP2C9 Enzyme
T3 construct: from tissue; host or cells: human liver microsomes
T3 sequence (P11712 whole entry): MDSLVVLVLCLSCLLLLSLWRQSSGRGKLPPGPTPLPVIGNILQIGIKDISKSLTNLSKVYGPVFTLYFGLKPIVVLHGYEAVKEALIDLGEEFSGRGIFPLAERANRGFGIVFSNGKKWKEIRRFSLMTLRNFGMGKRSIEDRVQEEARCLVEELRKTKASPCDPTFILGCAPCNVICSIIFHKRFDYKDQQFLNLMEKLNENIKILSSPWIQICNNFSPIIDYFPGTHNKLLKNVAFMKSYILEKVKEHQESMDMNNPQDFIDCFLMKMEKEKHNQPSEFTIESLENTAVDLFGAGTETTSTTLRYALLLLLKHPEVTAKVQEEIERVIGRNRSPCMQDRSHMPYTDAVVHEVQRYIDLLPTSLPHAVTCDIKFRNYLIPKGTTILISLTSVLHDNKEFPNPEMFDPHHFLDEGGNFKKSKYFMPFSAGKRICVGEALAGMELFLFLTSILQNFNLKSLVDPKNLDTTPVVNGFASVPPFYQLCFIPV
Experimental: In this assay, several exemplary compounds of the present disclosure and a control compound (Venetoclax) were used as the test compounds. In general, the assay was conducted by the following steps: • 1. The solution of test compound, human liver microsomes solution, and substrate (diclofenac) solution were mixed in a 96-well assay plate on ice to, and the final concentration of each test compound is 1 μM; • 2. The 96-well assay plate and NADPH solution were pre-incubated at 37° C. for 5 minutes; • 3. NADPH solution was added to into the assay plates to initiate the reaction; • 4. The assay plate was incubated at 37° C. for 10 min; • 5. The reaction was stopped; and after quenching, a portion of the supernatant was taken from each well for LC/MS analysis; • 6. The inhibition rate was calculated by the following equation: Inhibition rate (%)=(1−Valuetest/Valuecontrol)×100%, where Valuetest refers to the LC/MS data obtained from wells with test compounds and Valuecontrol refers to the LC/MS data obtained from wells without test compound.

T1 sequence (P10415 whole entry): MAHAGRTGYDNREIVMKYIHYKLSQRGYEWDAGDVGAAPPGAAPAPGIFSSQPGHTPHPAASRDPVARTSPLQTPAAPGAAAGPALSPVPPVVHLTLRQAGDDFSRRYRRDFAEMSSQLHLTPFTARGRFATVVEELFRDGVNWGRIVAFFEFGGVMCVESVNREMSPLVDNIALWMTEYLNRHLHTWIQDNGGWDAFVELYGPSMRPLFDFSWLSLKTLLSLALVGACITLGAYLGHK

SMILES | IC50 (BCL-2) [nM] | IC50 (BCL-XL) [nM] | GI50 (DOHH2 cells) [nM] | TGIRTV(%) ([1]; 25 mg/kg, p.o.) | TGIRTV(%) ([1]; 60 mg/kg, p.o.) | inhibition at 10 min, 1 µM (CYP2C9) [%] | TGIRTV(%) ([1]; 21 mg/kg, I.P.) | TGIRTV(%) ([1]; 50 mg/kg, p.o.)
O=C(NS(=O)(=O)c1ccc(NCCN2CCOCC2)c([N+](=O)[O-])c1)c1ccc(N2CCN(C3CCCCc4c(Cl)cccc43)CC2)cc1Oc1cnc2[nH]ccc2c1 (centres unmarked) [Compound 31, 2-((1H-pyrrolo[2,3-b]pyridin-5-yl)oxy)-4-(4-(1-chloro-6,7,8,9-tetrahydro-5H-benzo[7]annulen-5-yl)piperazin-1-yl)-N-((4-((2-morpholinoethyl)amino)-3-nitrophenyl)sulfonyl)benzamide] | < 20 | 20 to 200 | < 50 | ++ (30%<TGIRTV(%)<80%) |  |  |  | 
O=C(NS(=O)(=O)c1ccc(NCC2CCOCC2)c([N+](=O)[O-])c1)c1ccc(N2CCN([C@@H]3CCCCc4c(Cl)cccc43)CC2)cc1Oc1cnc2[nH]ccc2c1 [Compound 70, (R)-2-((1H-pyrrolo[2,3-b]pyridin-5-yl)oxy)-4-(4-(1-chloro-6,7,8,9-tetrahydro-5H-benzo[7]annulen-5-yl)piperazin-1-yl)-N-((3-nitro-4-(((tetrahydro-2H-pyran-4-yl)methyl)amino)phenyl)sulfonyl)benzamide] | < 20 |  | < 50 |  | +++ (TGIRTV(%)≥800) |  |  | 
O=C(NS(=O)(=O)c1ccc(NCC2CC3(CCNCC3)C2)c([N+](=O)[O-])c1)c1ccc(N2CCN([C@@H]3CCCCc4c(Cl)cccc43)CC2)cc1Oc1cnc2[nH]ccc2c1 [Compound 104, (R)-2-((1H-pyrrolo[2,3-b]pyridin-5-yl)oxy)-N-((4-(((7-azaspiro[3.5]nonan-2-yl)methyl)amino)-3-nitrophenyl)sulfonyl)-4-(4-(1-chloro-6,7,8,9-tetrahydro-5H-benzo[7]annulen-5-yl)piperazin-1-yl)benzamide] | < 20 | < 20 | < 50 |  |  | < 30 | +++ (TGIRTV(%)≥800) | 
CS(=O)(=O)N1CCC2(CC1)CC(CNc1ccc(S(=O)(=O)NC(=O)c3ccc(N4CCN([C@@H]5CCCCc6c(Cl)cccc65)CC4)cc3Oc3cnc4[nH]ccc4c3)cc1[N+](=O)[O-])C2 [Compound 107, (R)-2-((1H-pyrrolo[2,3-b]pyridin-5-yl)oxy)-4-(4-(1-chloro-6,7,8,9-tetrahydro-5H-benzo[7]annulen-5-yl)piperazin-1-yl)-N-((4-(((7-(methylsulfonyl)-7-azaspiro[3.5]nonan-2-yl)methyl)amino)-3-nitrophenyl)sulfonyl)benzamide] | < 20 | 20 to 200 | < 50 |  |  | 31 |  | 
CN1CCC2(CC1)CC(CNc1ccc(S(=O)(=O)NC(=O)c3ccc(N4CCN([C@@H]5CCCCc6c(Cl)cccc65)CC4)cc3Oc3cnc4[nH]ccc4c3)cc1[N+](=O)[O-])C2 [Compound 108, (R)-2-((1H-pyrrolo[2,3-b]pyridin-5-yl)oxy)-4-(4-(1-chloro-6,7,8,9-tetrahydro-5H-benzo[7]annulen-5-yl)piperazin-1-yl)-N-((4-(((7-methyl-7-azaspiro[3.5]nonan-2-yl)methyl)amino)-3-nitrophenyl)sulfonyl)benzamide] | < 20 | < 20 | < 50 |  |  | < 30 |  | 
CC(=O)NCCN1CCC2(CC1)CC(CNc1ccc(S(=O)(=O)NC(=O)c3ccc(N4CCN([C@@H]5CCCCc6c(Cl)cccc65)CC4)cc3Oc3cnc4[nH]ccc4c3)cc1[N+](=O)[O-])C2 [Compound 112, (R)-2-((1H-pyrrolo[2,3-b]pyridin-5-yl)oxy)-N-((4-(((7-(2-acetamidoethyl)-7-azaspiro[3.5]nonan-2-yl)methyl)amino)-3-nitrophenyl)sulfonyl)-4-(4-(1-chloro-6,7,8,9-tetrahydro-5H-benzo[7]annulen-5-yl)piperazin-1-yl)benzamide] | < 20 | < 20 | < 50 |  |  | 33 |  | 
O=C(NS(=O)(=O)c1ccc(NCC2CC3(CCN(CC(F)F)CC3)C2)c([N+](=O)[O-])c1)c1ccc(N2CCN([C@@H]3CCCCc4c(Cl)cccc43)CC2)cc1Oc1cnc2[nH]ccc2c1 [Compound 113, (R)-2-((1H-pyrrolo[2,3-b]pyridin-5-yl)oxy)-4-(4-(1-chloro-6,7,8,9-tetrahydro-5H-benzo[7]annulen-5-yl)piperazin-1-yl)-N-((4-(((7-(2,2-difluoroethyl)-7-azaspiro[3.5]nonan-2-yl)methyl)amino)-3-nitrophenyl)sulfonyl)benzamide] | < 20 | 20 to 200 | < 50 |  |  | < 30 |  | +++ (TGIRTV(%)≥800)
O=C(NS(=O)(=O)c1ccc(NCC2CC3(CCN(CCF)CC3)C2)c([N+](=O)[O-])c1)c1ccc(N2CCN([C@@H]3CCCCc4c(Cl)cccc43)CC2)cc1Oc1cnc2[nH]ccc2c1 [Compound 114, (R)-2-((1H-pyrrolo[2,3-b]pyridin-5-yl)oxy)-4-(4-(1-chloro-6,7,8,9-tetrahydro-5H-benzo[7]annulen-5-yl)piperazin-1-yl)-N-((4-(((7-(2-fluoroethyl)-7-azaspiro[3.5]nonan-2-yl)methyl)amino)-3-nitrophenyl)sulfonyl)benzamide] | < 20 | < 20 | < 50 |  |  | < 30 |  | +++ (TGIRTV(%)≥800)
O=C(NS(=O)(=O)c1ccc(NCC2CC3(CCN(CC(F)(F)F)CC3)C2)c([N+](=O)[O-])c1)c1ccc(N2CCN([C@@H]3CCCCc4c(Cl)cccc43)CC2)cc1Oc1cnc2[nH]ccc2c1 [Compound 115, (R)-2-((1H-pyrrolo[2,3-b]pyridin-5-yl)oxy)-4-(4-(1-chloro-6,7,8,9-tetrahydro-5H-benzo[7]annulen-5-yl)piperazin-1-yl)-N-((3-nitro-4-(((7-(2,2,2-trifluoroethyl)-7-azaspiro[3.5]nonan-2-yl)methyl)amino)phenyl)sulfonyl)benzamide] | < 20 | 200 to 2000 | 50 to 500 |  |  | < 30 |  | 
